In patent US7435433B2, “Process for the isolation of oleane compounds isolated from the bark of arjun tree terminalia arjuna (Roxb.)” (Council of Scientific & Industrial Research, priority 2005, dated 2008):
In brackets after ≈: the same amount, converted by molar mass.

Columns and labels:
[1] = tested on: Caco-2 (colon adenocarcinoma) cells; test: In-vitro anticancer MTT assay, Caco-2; assay type: cell-based, human; details: for Inhibitory Concentration (IC90) Caco-2: MTT assay, 90% inhibition of cell growth vs untreated control, 6 h exposure, then 48 h; for IC90: Homo sapiens, Caco-2, read-out: Inhibitory Concentration (IC90) Caco-2
Description: (§1) The following six human cancer cell lines were procured from the Cell Repository of the National Center for Cell Sciences (NCCS) at Pune. Their corresponding ATCC No. and the organ from which they were isolated are also mentioned in the table described below:
(§2) Cytotoxicity testing in vitro was done by the method of (Woerdenbag et al., 1993; J. Nat. Prod. 56 (6): 849-856). 2×10^3 cells/well were incubated in the 5% CO2 incubator for 24 h to enable them to adhere properly to the 96 well polystyrene microplate (Grenier, Germany). Test compounds dissolved in 100% DMSO in at least five doses were added and left for 6 h after which the compound plus media was replaced with fresh media and the cells were incubated for another 48 h in the CO2 incubator at 37° C.
(§3) Then, 10 μl MTT [3-(4,5-dimethylthiazol-2-yl)-2,5-diphenyltetrazolium bromide; Sigma M 2128] was added, and plates were incubated at 37° C. for 4 h. 100 μl dimethyl sulfoxide (DMSO, Merck, Germany) were added to all wells and mixed thoroughly to dissolve the dark blue crystals. After a few minutes at room temperature to ensure that all crystals were dissolved, the plates were read on a SpectraMax 190 Microplate Elisa reader (Molecular Devices Inc., USA), at 570 nm. Plates were normally read within 1 h of adding the DMSO. The experiment was done in triplicate and the inhibitory concentration (IC) values were calculated as follows: % inhibition=[1-OD (570 nm) of sample well/OD (570 nm) of control well]×100. IC90 is the concentration μg/ml required for 90% inhibition of cell growth as compared to that of untreated control. […] It was also found to be active against breast adenocarcinoma, liver and ovarian cancer cell lines at 20-60 μg/ml.
(§4) IC90: Concentration required to inhibit 90% of cell growth as compared to that of control.

[2] = tested on: PA-1 (ovary cancer) cells; test: In-vitro anticancer MTT assay, PA-1; assay type: cell-based, human; details: 90% inhibition of cell growth vs untreated control, 6 h exposure, then 48 h
Description: as §1, §2, §3, §4

[3] = tested on: MCF-7 (breast cancer) cells; test: In-vitro anticancer MTT assay, MCF-7; assay type: cell-based, human; details: 6 h exposure, then 48 h; for IC90: Homo sapiens, MCF7, 90% inhibition of cell growth vs untreated control, read-out: Inhibitory Concentration (IC90) MCF-7
Description: as §1, §2, §3, §4

[4] = tested on: TA98 and TA100 strains of salmonella typhimurium; details: cited from earlier work
[5] = tested on: WRL-68 (liver cancer) cells; test: In-vitro anticancer MTT assay, WRL-68; assay type: cell-based; details: Homo sapiens, WRL68, 90% inhibition of cell growth vs untreated control, 6 h exposure, then 48 h, read-out: Inhibitory Concentration (IC90) WRL-68
Description: as §1, §2
(§5) Then, 10 μl MTT [3-(4,5-dimethylthiazol-2-yl)-2,5-diphenyltetrazolium bromide; Sigma M 2128] was added, and plates were incubated at 37° C. for 4 h. […] After a few minutes at room temperature to ensure that all crystals were dissolved, the plates were read on a SpectraMax 190 Microplate Elisa reader (Molecular Devices Inc., USA), at 570 nm. Plates were normally read within 1 h of adding the DMSO. The experiment was done in triplicate and the inhibitory concentration (IC) values were calculated as follows: % inhibition=[1-OD (570 nm) of sample well/OD (570 nm) of control well]×100. […]

[6] = tested on: breast adenocarcinoma, liver and ovarian cancer cell lines; test: In-vitro anticancer MTT assay, summary over three cell lines; assay type: cell-based; details: Homo sapiens, range over three cell lines, read-out: active concentration (IC90) against breast adenocarcinoma, liver and ovarian cancer cell lines
Description: as §1, §2, §5

Neisseria gonorrhoeae = details: cited from earlier work
[7] = tested on: BT-20 human breast carcinoma cells; details: cited from earlier work

In the case of arjungenin, the “Inhibitory Concentration (IC90) Caco-2” value [1] is reported as 50 µg/mL, the “Inhibitory Concentration (IC90) PA-1” value [2] is reported as 60 µg/mL and the “Inhibitory Concentration (IC90) MCF-7” value ([3]; 90% inhibition of cell growth vs untreated control) is reported as >50 µg/mL.
In the case of O=c1oc2c(O)c(O)cc3c(=O)oc4c(O)c(O)cc1c4c23 [Ellagic acid], the “antimutagenic effect against 59-dependent 2AF” value [4] is given as “quit effective” and the “antimutagenic effect against NPD” value [4] is given as “moderate effect”.
CC1(C)CCC2(C(=O)O)CCC3(C)C(=CCC4C5(C)CC(O)C(O)C(C)(C)C5CCC43C)C2C1O (racemic) [Arjunic acid, 2±,3^2,19±-tri-hydroxy-olea-12-en-28-oic acid] gave an IC90 [1] of 4.5 µg/mL (≈ 9.21 µM), an IC90 [5] of 20 µg/mL (≈ 40.9 µM) and an IC90 ([2]; Homo sapiens, read-out: Inhibitory Concentration (IC90) PA-1) of 60 µg/mL (≈ 123 µM). For the same molecule, the IC90 [6] was 20 to 60 µg/mL (≈ 40.9 to 123 µM) and the IC90 [3] was 50 µg/mL (≈ 102 µM).
With CC1(C)CC[C@]2(C(=O)O[C@@H]3O[C@H](CO)[C@@H](O)[C@H](O)[C@H]3O)CC[C@]3(C)C(=CC[C@@H]4[C@@]5(C)C[C@@H](O)[C@H](O)[C@@](C)(CO)[C@@H]5CC[C@]43C)[C@@H]2[C@@H]1O [Arjunglucoside-I, arjunglucoside-I] the “Inhibitory Concentration (IC90) Caco-2” value [1] was >50 µg/mL and the “Inhibitory Concentration (IC90) PA-1” value [2] was >50 µg/mL.
For O=c1cc(-c2ccc(O)c(O)c2)oc2cc(O)cc(O)c12 [Luteolin], the “activity against pathogenic bacteria” value (Neisseria gonorrhoeae) is given as “specific activity”.
For O=C(O[C@H]1[C@@H]2OC(=O)c3cc(O)c(O)c(O)c3-c3c(O)c(O)c4oc(=O)c5c(c(O)c(O)c6oc(=O)c3c4c65)-c3c(cc(O)c(O)c3O)C(=O)OC[C@H]2OC(O)[C@@H]1O)c1cc(O)c(O)c(O)c1 (stereo partly drawn) [Arjunin], the IC50 [7] is given as 6500 µg/mL (≈ 6950 µM) and the cytotoxic activity [7] is given as “moderate cytotoxic activity”.
CC1(C)CCC2(C(=O)OC3OC(CO)C(O)C(O)C3O)CCC3(C)C(=CCC4C5(C)CC(O)C(O)C(C)(C)C5CCC43C)C2C1O (stereo not drawn) [Arjunetin, arjunetin] showed an IC90 [1] of 10 µg/mL (≈ 15.4 µM), an IC90 [5] of 20 µg/mL (≈ 30.7 µM) and an IC90 [3] of 50 µg/mL (≈ 76.8 µM).
